Each block holds one compound with its values, some of them ahead of it. Activity calls are given as the source filed them.
How the values were obtained:
[1] = target: DNA dC->dU-editing enzyme APOBEC-3G (Homo sapiens, UniProt Q9HC16); assay type: functional;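 also: Dose-response counterscreen measuring inhibition of APOBEC3G DNA deaminase activity, run while confirming APOBEC3A inhibitors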
[2] = target: DNA dC->dU-editing enzyme APOBEC-3A (Homo sapiens, UniProt P31941); test: Dose Response confirmation of small molecule APOBEC3A DNA Deaminase Inhibitors via a fluorescence-based single-stranded DNA deaminase assay. [Related pubchem assays (depositor defined):AID493011, AID493024]; assay type: functional
DNA dC->dU-editing enzyme APOBEC-3A, sequence (P31941 whole entry): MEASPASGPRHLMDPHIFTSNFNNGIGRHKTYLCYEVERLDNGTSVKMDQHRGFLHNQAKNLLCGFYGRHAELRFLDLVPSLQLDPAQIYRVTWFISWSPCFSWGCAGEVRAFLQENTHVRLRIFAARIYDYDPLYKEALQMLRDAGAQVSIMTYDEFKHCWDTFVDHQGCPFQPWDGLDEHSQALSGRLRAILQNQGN

Paired box protein Pax-8 = Paired box protein Pax-8 (Homo sapiens, UniProt Q06710); test: PAX8 transcriptional activity inhibition in RMG-I – RMG-I cells, luciferase, cherry-pick, dose response (AID 687027); assay type: functional, cell-based;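 also: luciferase reporter driven by Pax8 target thyroperoxidase promoter measured by SteadyGlo luminescence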
Paired box protein Pax-8, sequence (Q06710 whole entry): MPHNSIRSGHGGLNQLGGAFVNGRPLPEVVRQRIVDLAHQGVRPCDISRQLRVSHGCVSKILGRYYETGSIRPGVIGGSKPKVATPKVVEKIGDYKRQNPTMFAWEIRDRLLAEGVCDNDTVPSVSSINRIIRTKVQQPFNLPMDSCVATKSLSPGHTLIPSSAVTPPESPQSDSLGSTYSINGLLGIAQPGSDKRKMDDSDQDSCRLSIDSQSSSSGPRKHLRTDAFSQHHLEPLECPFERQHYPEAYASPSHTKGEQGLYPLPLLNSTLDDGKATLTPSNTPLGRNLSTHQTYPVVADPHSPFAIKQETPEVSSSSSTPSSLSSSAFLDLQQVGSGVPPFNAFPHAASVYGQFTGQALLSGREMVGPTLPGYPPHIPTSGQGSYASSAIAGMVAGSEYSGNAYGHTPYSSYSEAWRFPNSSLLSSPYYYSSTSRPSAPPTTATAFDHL

[3] = OVCAR8 cell viability loss – plate reader, dry powder samples, PAX8 project, dose response (AID 743197); assay type: functional, cell-based; settings: OVCAR-8
[4] = OVCAR-3 cell viability loss – plate reader, dry powder samples, PAX8 inhibitor project, dose response (AID 743044); assay type: functional, cell-based
[5] = viability loss in human Jurkat cells – cell-based, luminescence, cytotoxicity control for P. falciparum gametocyte viability project, dose response (AID 1117277); assay type: functional;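 also: potency reflects loss of cellular ATP meaning fewer viable cells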
[6] = viability inhibitors of stage V gametocytes – luminescence, dose response (AID 1117278); assay type: functional, cell-based;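 also: gametocytes exposed to compound for 24 hours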
[7] = HPDE-C7 pancreatic duct cell viability loss – fluorescence, HTS (AID 430); assay type: functional, cell-based; settings: Homo sapiens
[8] = viability loss of HPDE-C7K cells – cell-based, fluorescence, HTS, primary screen (AID 431); assay type: functional; settings: Homo sapiens
Coagulation factor XII = target: T1, Coagulation factor XII (Homo sapiens, UniProt P00748); test: activated coagulation factor XII inhibitor potency, concentration-effect curve, cell-free (AID 716); assay type: functional
T1 sequence (P00748 whole entry): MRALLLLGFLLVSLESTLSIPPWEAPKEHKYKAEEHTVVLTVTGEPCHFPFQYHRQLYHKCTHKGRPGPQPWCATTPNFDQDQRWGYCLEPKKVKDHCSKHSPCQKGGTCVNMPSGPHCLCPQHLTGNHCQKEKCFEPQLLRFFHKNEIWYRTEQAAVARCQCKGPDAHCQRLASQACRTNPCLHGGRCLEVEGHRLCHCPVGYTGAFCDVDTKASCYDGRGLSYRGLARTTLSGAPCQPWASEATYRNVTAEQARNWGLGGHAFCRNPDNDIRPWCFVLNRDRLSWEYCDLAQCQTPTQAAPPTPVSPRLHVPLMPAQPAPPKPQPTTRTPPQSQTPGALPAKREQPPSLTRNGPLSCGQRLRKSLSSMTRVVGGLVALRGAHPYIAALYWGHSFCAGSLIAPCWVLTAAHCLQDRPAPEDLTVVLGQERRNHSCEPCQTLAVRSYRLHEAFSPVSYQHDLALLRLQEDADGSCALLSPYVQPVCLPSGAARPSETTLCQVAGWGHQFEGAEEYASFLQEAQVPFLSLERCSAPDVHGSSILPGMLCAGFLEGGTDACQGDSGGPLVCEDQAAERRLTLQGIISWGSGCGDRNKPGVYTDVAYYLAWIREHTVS

Prothrombin = Prothrombin (Homo sapiens, UniProt P00734); test: Thrombin 1536 HTS Dose Response Confirmation. [Related pubchem assays: 1046 (Thrombin 1536 HTS; hits were confirmed in this assay)]; assay type: functional
[9] = target: T2, Sentrin-specific protease 8 (Homo sapiens, UniProt Q96LD8); assay type: functional
T2 sequence (Q96LD8 whole entry): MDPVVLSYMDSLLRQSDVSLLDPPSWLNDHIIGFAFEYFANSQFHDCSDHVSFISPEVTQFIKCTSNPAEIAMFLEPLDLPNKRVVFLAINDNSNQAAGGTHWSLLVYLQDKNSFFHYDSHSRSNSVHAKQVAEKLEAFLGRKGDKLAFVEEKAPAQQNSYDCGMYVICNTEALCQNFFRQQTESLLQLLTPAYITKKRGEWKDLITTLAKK

[10] = P. falciparum Dd2 growth inhibitors, dose response, SYBR Green, cherry-picked samples (AID 1159567); assay type: functional, cell-based
[11] = growth inhibition of PfATP4-mutant resistant parasites – NITD609-resistant line, SYBR Green, dry powder, dose response (AID 1159571); assay type: functional, cell-based;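 also: parasites synchronized at ring stage by sorbitol before testing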
[12] = growth inhibition of yeast DHODH-expressing 3D7 parasites – SYBR Green, dry powder samples, dose response (AID 1159570); assay type: functional, cell-based;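 also: parasite growth measured after 72 hours of compound exposure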
[13] = Dd2 malaria parasite growth inhibition potency – SYBR Green, dry powder samples, dose response (AID 1159566); assay type: functional, cell-based;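 also: potency for growth inhibition with lower SYBR green DNA signal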

DNA dC->dU-editing enzyme APOBEC-3G, sequence (Q9HC16 whole entry): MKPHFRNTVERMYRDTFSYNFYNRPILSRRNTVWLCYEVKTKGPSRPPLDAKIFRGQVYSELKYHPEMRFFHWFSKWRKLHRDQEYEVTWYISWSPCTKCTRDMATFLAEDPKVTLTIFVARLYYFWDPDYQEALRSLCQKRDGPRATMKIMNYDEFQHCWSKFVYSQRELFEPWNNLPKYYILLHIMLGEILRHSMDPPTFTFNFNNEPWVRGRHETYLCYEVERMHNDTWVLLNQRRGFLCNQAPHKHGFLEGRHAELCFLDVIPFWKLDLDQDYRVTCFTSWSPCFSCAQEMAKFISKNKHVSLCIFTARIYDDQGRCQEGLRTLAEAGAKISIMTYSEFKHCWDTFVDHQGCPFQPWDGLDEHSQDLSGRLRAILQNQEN

Structure (SMILES): Nn1c(SCC(=O)Nc2ccc3c(c2)OCCO3)nnc(CCC(=O)O)c1=O
IC50 [1]: 8.47 µM (active)
IC50 [2]: 9.11 µM (active)

Structure (SMILES): Cc1ccc(S(=O)(=O)Nc2ccc3c(c2)C(=O)N([C@H](C)CO)C[C@@H](C)[C@H](CN(C)C(=O)Nc2cccc4ccccc24)OCCCC[C@@H](C)O3)cc1
AC50 (Paired box protein Pax-8): 5.78 µM (active)
AC50 [3]: > 70 µM (inactive)
AC50 [4]: 42.1 µM (active)

Structure (SMILES): O=C(COC(=O)c1cncc(Br)c1)NC1CCCCCC1
IC50 [5]: > 83.3 µM (inactive)
IC50 [6]: > 109 µM (inactive)

Structure (SMILES): CCn1cc(C(=O)N2CCc3ccccc32)c(=O)c2cc(S(=O)(=O)N3CCOCC3)ccc21
EC50 [7]: > 20 µM (not active)
EC50 [8]: > 20 µM (not active)

IC50 (Coagulation factor XII): > 50 µM (inactive)
Structure (SMILES): O=C(c1ccco1)N1CCN(S(=O)(=O)c2ccc(Oc3ccccc3)cc2)CC1

Structure (SMILES): CCOC(=O)/C(CCCN(CC)CC)=N\O
IC50 [1]: 1.26 µM (active)
IC50 [2]: 1.35 µM (active)

IC50 (Coagulation factor XII): > 50 µM (inactive)
Structure (SMILES): O=C(CCC1COc2ccccc2O1)NCc1ccco1 (stereo not given)

Structure (SMILES): CN1CCCN(S(=O)(=O)c2ccccc2)CC1
IC50 [1]: 5.93 µM (active)
IC50 [2]: 4.85 µM (active)

IC50 (Prothrombin): > 50 µM (not active)
Structure (SMILES): CCOC(=O)C(CC)(CCC(=O)OC)c1csc(Nc2ccccc2O)n1 (stereo not given)

IC50 (Coagulation factor XII): > 50 µM (inactive)
Structure (SMILES): CC(=O)NCC(=O)OCC(=O)Nc1ccc(C(C)=O)cc1

IC50 (Prothrombin): > 50 µM (not active)
Structure (SMILES): CN(C)c1ccc(NC(=O)c2ccc(Cn3cc([N+](=O)[O-])cn3)cc2)cc1
IC50 [9]: 23.2 µM (active)

Structure (SMILES): COc1ccc(C#Cc2ccc3c(c2)O[C@@H](CN(C)S(=O)(=O)c2ccccc2F)[C@@H](C)CN([C@@H](C)CO)S3(=O)=O)cc1
AC50 [10]: 2.65 µM (active)
AC50 [11]: 1.93 µM (active)
AC50 [12]: 1.71 µM (active)
AC50 [13]: 1.42 µM (active)

Structure (SMILES): COc1ccc(NC(=O)CS(=O)(=O)c2ccccc2)cc1
IC50 [5]: > 83.2 µM (inactive)
IC50 [6]: > 109 µM (inactive)
